In patent publication US12649751B2 (Arcus Biosciences, Inc., priority 2022, dated 2026):

molecular target: HPK1 (Homo sapiens, UniProt Q92918); test: HPK1 Biochemical Assay (ADP-Glo luminescence; low ATP 10 μM or high ATP 200 μM); conditions: 2 nM HPK1, 10 μM ATP; read-out: Biochemical Potency (low ATP)
Sequence (Q92918 whole entry, species assumed): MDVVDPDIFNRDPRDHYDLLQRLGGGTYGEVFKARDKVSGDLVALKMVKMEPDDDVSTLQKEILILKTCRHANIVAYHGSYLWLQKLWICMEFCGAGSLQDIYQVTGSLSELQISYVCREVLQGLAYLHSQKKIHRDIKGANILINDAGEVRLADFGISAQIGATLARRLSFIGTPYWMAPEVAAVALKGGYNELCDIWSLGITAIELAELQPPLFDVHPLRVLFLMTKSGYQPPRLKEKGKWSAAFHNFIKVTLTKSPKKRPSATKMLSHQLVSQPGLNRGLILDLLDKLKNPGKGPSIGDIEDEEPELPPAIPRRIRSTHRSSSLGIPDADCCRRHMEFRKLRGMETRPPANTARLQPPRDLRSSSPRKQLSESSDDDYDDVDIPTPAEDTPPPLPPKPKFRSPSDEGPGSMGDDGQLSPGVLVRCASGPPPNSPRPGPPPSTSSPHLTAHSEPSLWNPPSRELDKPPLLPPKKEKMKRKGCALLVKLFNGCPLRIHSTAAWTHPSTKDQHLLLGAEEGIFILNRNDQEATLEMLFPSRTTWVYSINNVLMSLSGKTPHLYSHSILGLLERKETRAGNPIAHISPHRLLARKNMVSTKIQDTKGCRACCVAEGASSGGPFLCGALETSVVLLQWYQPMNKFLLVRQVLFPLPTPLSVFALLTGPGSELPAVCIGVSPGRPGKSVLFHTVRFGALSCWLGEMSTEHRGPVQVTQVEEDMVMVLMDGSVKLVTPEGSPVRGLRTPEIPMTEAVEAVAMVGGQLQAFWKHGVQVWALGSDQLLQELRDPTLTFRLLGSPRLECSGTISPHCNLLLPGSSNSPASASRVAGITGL

IC50 [µM]	SMILES
< 0.1	Cc1cccnc1-c1nc2cc(Nc3ccc(C4CCOC4)c(CN4CCCC4)n3)ncc2s1 (racemic) [Example 252, N-[2-(3-Methylpyridin-2-yl)-[1,3]thiazolo[5,4-c]pyridin-6-yl]-5-(oxolan-3-yl)-6-[(pyrrolidin-1-yl)methyl]pyridin-2-amine]
< 0.1	CS(=O)(=O)Nc1cccc(-c2nc3cc(Nc4cccc(N5C[C@@H]6C[C@H]5CN6)n4)ncc3s2)c1 [Example 287, N-{3-[6-({6-[(1S,4S)-2,5-diazabicyclo[2.2.1]heptan-2-yl]pyridin-2-yl}amino)-[1,3]thiazolo[5,4-c]pyridin-2-yl]phenyl}methanesulfonamide]
< 0.1	CNS(=O)(=O)c1cccc(-c2nc3cc(Nc4cccc(N5C[C@@H]6C[C@H]5CN6)n4)ncc3s2)c1 [Example 292, 3-[6-({6-[(1S,4S)-2,5-diazabicyclo[2.2.1]heptan-2-yl]pyridin-2-yl}amino)-[1,3]thiazolo[5,4-c]pyridin-2-yl]-N-methylbenzene-1-sulfonamide]
< 0.1	CN(C)S(=O)(=O)c1cccc(-c2nc3cc(Nc4cccc(N5C[C@@H]6C[C@H]5CN6)n4)ncc3s2)c1 [Example 293]
< 0.1	CN1C[C@@H]2C[C@H]1CN2c1nccc(Nc2cc3nc(-c4ccnc5c4cnn5C)sc3cn2)n1 [Example 294, N-(2-{1-methyl-1H-pyrazolo[3,4-b]pyridin-4-yl}-[1,3]thiazolo[5,4-c]pyridin-6-yl)-2-[(1 S,4S)-5-methyl-2,5-diazabicyclo[2.2.1]heptan-2-yl]pyrimidin-4-amine]

same assay, conditions: HPK1 ADP-Glo assay, high ATP (200 μM ATP, 5 nM HPK1); read-out: Biochemical Potency (high ATP)

IC50 [µM]	SMILES
< 0.1	CC[C@@H]1COCCN1c1cncc(-c2nc3cc(Nc4cc(C)nc(N5C[C@@H]6C[C@H]5CN6CC)n4)ncc3s2)c1 [Example 473]
< 0.1	Cc1cc(Nc2cc3nc(-c4cccc(C(=O)N(C)[C@@H]5CCCOC5)c4)sc3cn2)nc(N2C[C@@H]3C[C@H]2CN3CCO)n1 [Example 542]
< 0.1	Cc1cc(Nc2cc3nc(-c4cccc(C(=O)N(C)C[C@@H]5CCOC5)c4)sc3cn2)nc(N2C[C@@H]3C[C@H]2CN3CCO)n1 [Example 557]
< 0.1	Cc1cc(Nc2cc3nc(-c4cccc(C(=O)N(C)[C@@H]5CCOC5)c4)sc3cn2)nc(N2C[C@@H]3C[C@H]2CN3CCO)n1 [Example 559]

same assay, conditions: HPK1 ADP-Glo assay, low ATP (10 μM ATP, 2 nM HPK1); read-out: Biochemical Potency (low ATP)

IC50 [µM]	SMILES
< 0.1	CC(C)(O)c1cc(-c2nc3cc(Nc4cnc(C5CCOCC5)c(N5C[C@@H]6C[C@H]5CN6)n4)ncc3s2)ccn1 [Example 303, 2-{4-[6-({6-[(1S,4S)-2,5-diazabicyclo[2.2.1]heptan-2-yl]-5-(oxan-4-yl)pyrazin-2-yl}amino)-[1,3]thiazolo[5,4-c]pyridin-2-yl]pyridin-2-yl}propan-2-ol]
< 0.1	Cc1cccnc1-c1nc2cc(Nc3ccc4cccc(C(C)(C)N)c4n3)ncc2s1 [Example 306, 6-[8-(1-amino-1-methylethyl)-2-quinolylamino]-2-(3-methyl-2-pyridyl)-3-thia-1,5-diazaindene]
< 0.1	Cc1cccnc1-c1nc2cc(Nc3cccc(C4(O)C[C@@H]5CC4CN5)n3)ncc2s1 (stereo partly drawn) [Example 314, 5-{6-[2-(3-methyl-2-pyridyl)-3-thia-1,5-diaza-6-indenylamino]-2-pyridyl}-2-azabicyclo[2.2.1]heptan-5-ol]
0.1 to 1	Cc1cccnc1-c1nc2cc(Nc3cc(C4CCNC4)nc(N4CCC(F)(F)C4)n3)ncc2s1 (stereo not drawn) [Example 319, [2-(3,3-difluoro-1-pyrrolidinyl)-6-(3-pyrrolidinyl)-4-pyrimidinyl][2-(3-methyl-2-pyridyl)-3-thia-1,5-diaza-6-indenyl]amine]
< 0.1	CNS(=O)(=O)c1cccc(-c2nc3cc(Nc4cccc(N5C[C@@H]6C[C@H]5CN6)n4)ncc3s2)c1 [Example 324]
< 0.1	CN(C)S(=O)(=O)c1cccc(-c2nc3cc(Nc4cccc(N5C[C@@H]6C[C@H]5CN6)n4)ncc3s2)c1 [Example 325]
< 0.1	CS(=O)(=O)Nc1cccc(-c2nc3cc(Nc4cccc(N5C[C@@H]6C[C@H]5CN6)n4)ncc3s2)c1 [Example 326]
< 0.1	CN1C[C@@H]2C[C@H]1CN2c1nccc(Nc2cc3nc(-c4ccnc5c4cnn5C)sc3cn2)n1 [Example 411]
< 0.1	CN1C[C@@H]2C[C@H]1CN2c1cncc(Nc2cc3nc(-c4cccc(C(=O)N5CC[C@H](F)C5)c4)sc3cn2)n1 [Example 417]
< 0.1	CN1C[C@@H]2C[C@H]1CN2c1cncc(Nc2cc3nc(-c4cccc(C(C)(C)O)c4)sc3cn2)n1 [Example 418]
< 0.1	CN1C[C@@H]2C[C@H]1CN2c1nccc(Nc2cc3nc(-c4cccc(C(C)(C)O)c4)sc3cn2)n1 [Example 419]
< 0.1	CN1C[C@@H]2C[C@H]1CN2c1nccc(Nc2cc3nc(-c4ncco4)sc3cn2)n1 [Example 420]
< 0.1	CN1C[C@@H]2C[C@H]1CN2c1cncc(Nc2cc3nc(-c4ncco4)sc3cn2)n1 [Example 421]
0.1 to 1	CN1C[C@@H]2C[C@H]1CN2c1nccc(Nc2cc3nc(N4CCc5cnccc5C4)sc3cn2)n1 [Example 426]
0.1 to 1	CN1C[C@@H]2C[C@H]1CN2c1nccc(Nc2cc3nc(N4CCc5ccncc5C4)sc3cn2)n1 [Example 427]
0.1 to 1	CN1C[C@@H]2C[C@H]1CN2c1nccc(Nc2cc3nc(N4CCc5cccnc5C4)sc3cn2)n1 [Example 428]
< 0.1	c1cnn(-c2nc3cc(Nc4cc(C5CCOCC5)nc(N5C[C@@H]6C[C@H]5CN6)n4)ncc3s2)c1 [Example 437]
< 0.1	CN1C[C@@H]2C[C@H]1CN2c1nc(Nc2cc3nc(-c4ccnc(C(C)(C)O)c4)sc3cn2)cc(C2CCOCC2)n1 [Example 439]
< 0.1	CC(C)(O)c1cc(-c2nc3cc(Nc4cc(C5CCOCC5)nc(N5C[C@@H]6C[C@H]5CN6)n4)ncc3s2)ccn1 [Example 441]
< 0.1	CC(C)(O)c1cccc(-c2nc3cc(Nc4cc(C5CCOCC5)nc(N5C[C@@H]6C[C@H]5CN6)n4)ncc3s2)c1 [Example 442]
< 0.1	CN1C[C@@H]2C[C@H]1CN2c1nccc(Nc2cc3nc(-c4ccnc(N5CCC[C@@H](O)C5)c4)sc3cn2)n1 [Example 459]
< 0.1	CN1C[C@@H]2C[C@H]1CN2c1nccc(Nc2cc3nc(-c4ccnc(N5CC[C@@H](F)C5)c4)sc3cn2)n1 [Example 461]
< 0.1	CN1C[C@@H]2C[C@H]1CN2c1nccc(Nc2cc3nc(-c4ccnc(N5CC[C@H](O)C5)c4)sc3cn2)n1 [Example 462]
< 0.1	CN1C[C@@H]2C[C@H]1CN2c1nccc(Nc2cc3nc(-c4ccnc(N5CC[C@H](F)C5)c4)sc3cn2)n1 [Example 463]
< 0.1	CN1C[C@@H]2C[C@H]1CN2c1nccc(Nc2cc3nc(-c4ccnc(N5CC[C@@H](O)C5)c4)sc3cn2)n1 [Example 465]
< 0.1	Cc1cccnc1-c1nc2cc(Nc3ccc4c(n3)[C@@](C)(N)CCC4)ncc2s1 [Example 578]
< 0.1	Cc1ccnn1-c1nc2cc(Nc3ccc4c(n3)C(C)(N)CC4)ncc2s1 (stereo not drawn) [Example 579]
< 0.1	Cc1ccnn1-c1nc2cc(Nc3ccc4c(n3)C(C)(N)CCC4)ncc2s1 (stereo not drawn) [Example 580]
< 0.1	Cc1cccnc1-c1nc2cc(Nc3ccc4c(n3)[C@H](N)CC4)ncc2s1 [Example 582]
< 0.1	Cc1cccnc1-c1nc2cc(Nc3ccc4c(n3)[C@@H](N)CCC4)ncc2s1 [Example 583]

tested on: p-SLP-76 (Ser376) in Jurkat cells; test: pSLP76 Cellular Assay (AlphaLISA SureFire Ultra p-SLP-76 (Ser376), anti-CD3 activated Jurkat cells); format: cell-based; conditions: Homo sapiens; Jurkat cells, anti-CD3 stimulation, pSLP76; read-out: Cellular Potency
Protocol: pSLP76 cellular assay was performed using Jurkat cells and the AlphaLISA SureFire Ultra p-SLP-76 (Ser376) Assay Kit (PerkinElmer). Dose-response assays were performed in Greiner® Low Volume 384-well assay plates containing 200 nL of 22 serial 2-fold compound dilutions using Bravo and Echo. Jurkat cells were grown in RPMI-1640 supplemented with 10% FBS and PSG. The day prior to the assay, the cells were collected, and serum starved overnight in Opti-MEM. The day of the assay, the cells were collected and resuspended in HBSS. 100,000 cells/well were added to the compound plates and after a short spin, the plates were incubated at 37° C. for 1 h. The cells were activated by adding 10 μL of 0.025 mg/ml anti-CD3. Plates were then incubated at 37° C. for 45 min. Stimulation was terminated by adding […], followed by a brief centrifugation and 60 min of shaking at 300 rpm. Cell lysates (10 μL) were transferred to 384-well White Opti-plates and the samples were processed according to the manufacturer's directions. The fluorescence signal from pSLP76 was measured at 570 nm using Envision plate reader. IC50 values were determined by fitting the data to a standard 4-parameter logistic equation. The results are summarized in the Cellular Potency columns in Tables 4 and 5 below (Cellular Potency).

IC50 [µM]	SMILES
0.1 to 1	Cc1cccnc1-c1nc2cc(Nc3ccc(C4CCOC4)c(CN4CCCC4)n3)ncc2s1 (racemic) [Example 252, N-[2-(3-Methylpyridin-2-yl)-[1,3]thiazolo[5,4-c]pyridin-6-yl]-5-(oxolan-3-yl)-6-[(pyrrolidin-1-yl)methyl]pyridin-2-amine]
0.1 to 1	CN1C[C@@H]2C[C@H]1CN2c1cccc(Nc2cc3nc(-c4cccc(S(C)(=O)=O)c4)sc3cn2)n1 [Example 136, N-[2-(3-Methanesulfonylphenyl)-[1,3]thiazolo[5,4-c]pyridin-6-yl]-6-[(1S,4S)-5-methyl-2,5-diazabicyclo[2.2.1]heptan-2-yl]pyridin-2-amine]

SMILES	IC50 [µM]
Cc1ccc(Nc2cc3nc(-c4ncccc4C)sc3cn2)nc1OC[C@H](N)C(C)(C)C [Example 180, 6-[(2R)-2-Amino-3,3-dimethylbutoxy]-5-methyl-N-[2-(3-methylpyridin-2-yl)-[1,3]thiazolo[5,4-c]pyridin-6-yl]pyridin-2-amine]	> 5

same assay, conditions: Homo sapiens; pSLP76 (Ser376) AlphaLISA, anti-CD3 activated Jurkat cells; read-out: Cellular Potency

IC50 [µM]	SMILES
< 0.1	Cc1cc(Nc2cc3nc(-c4cccc(C(=O)N(C)C5CCCOC5)c4)sc3cn2)nc(N2C[C@@H]3C[C@H]2CN3CCO)n1 (stereo partly drawn) [Example 542]
0.1 to 1	Cc1cc(Nc2cc3nc(-c4cccc(C(=O)N(C)CC5CCOC5)c4)sc3cn2)nc(N2C[C@@H]3C[C@H]2CN3CCO)n1 (stereo partly drawn) [Example 557]
0.1 to 1	Cc1cc(Nc2cc3nc(-c4cccc(C(=O)N(C)C5CCOC5)c4)sc3cn2)nc(N2C[C@@H]3C[C@H]2CN3CCO)n1 (stereo partly drawn) [Example 559]
